Experimental data from PubChem BioAssay (NCI).
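The compound was tested at five concentrations on cells cultured in 96-well plates, with a 48-hour exposure period. Abbreviation: GI50, concentration required for 50% inhibition of growth. Definition used: TGI = concentration required for complete inhibition of growth.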

Columns and labels:
Assay in all cases: inhibition of tumour cell growth, NCI panel, 48 h
[1] = system: U251 CNS
[2] = system: RPMI-8226 leukemia
[3] = system: RXF 393 renal
[4] = system: NCI-H226 lung
[5] = system: SNB-19 CNS
[6] = system: ACHN renal
[7] = system: HOP-92 NSCLC
[8] = system: SF-295 CNS
[9] = system: SR leukemia
[10] = system: A549 NSCLC
[11] = system: SNB-75 CNS
[12] = system: UACC-62 melanoma
[13] = system: HCT-116 colon
[14] = system: MOLT-4 leukemia
[15] = system: BT-549 breast
[16] = system: SF-539 CNS
[17] = system: OVCAR-5 ovarian
[18] = system: K-562 leukemia
[19] = system: SW-620 colon
[20] = system: TK-10 renal
[21] = system: HCC-2998 colon
[22] = system: PC-3 prostate
[23] = system: IGROV1 ovarian
[24] = system: SF-268 CNS
[25] = system: LOX IMVI melanoma
[26] = system: 786-0 renal
[27] = system: UACC-257 melanoma
[28] = system: OVCAR-4 ovarian
[29] = system: MDA-MB-231 breast
[30] = system: CCRF-CEM leukemia
[31] = system: SK-MEL-28 melanoma
[32] = system: UO-31 renal
[33] = system: HL-60(TB) leukemia
[34] = system: OVCAR-8 ovarian
[35] = system: T-47D breast
[36] = system: COLO 205 colon
[37] = system: NCI/ADR-RES ovarian
[38] = system: OVCAR-3 ovarian
[39] = system: HOP-62 NSCLC
[40] = system: MCF7 breast
[41] = system: HT29 colon
[42] = system: MDA-MB-435
[43] = system: M14 melanoma
[44] = system: DU-145 prostate
[45] = system: HCT-15 colon
[46] = system: SK-MEL-2 melanoma
[47] = system: EKVX NSCLC
[48] = system: A498 renal
[49] = system: HS 578T breast
[50] = system: SK-MEL-5 melanoma
[51] = system: NCI-H522 lung
[52] = system: KM12 colon
[53] = system: NCI-H460 lung
[54] = system: SN12C renal
[55] = system: CAKI-1 renal
[56] = system: MALME-3M melanoma
[57] = system: SK-OV-3 ovarian

## O=C(CSc1nc2ccccc2c(=O)n1-c1ccc(Cl)cc1)N/N=C/c1ccc(Oc2ccc(Cl)cc2)cc1
[1]
  GI50: 1.65 µM
  TGI: 3.69 µM
[2]
  GI50: 2.98 µM
  TGI: 15.8 µM
[3]
  GI50: 1.7 µM
  TGI: 3.14 µM
[4]
  GI50: 2.46 µM
  TGI: 6.59 µM
[5]
  GI50: 3.36 µM
  TGI: 12.7 µM
[6]
  GI50: 4.36 µM
  TGI: 15.2 µM
[7]
  GI50: 2.07 µM
  TGI: 5.62 µM
[8]
  GI50: 3.61 µM
  TGI: 13.3 µM
[9]
  GI50: 1.84 µM
  TGI: 6.86 µM
[10]
  GI50: 3.25 µM
  TGI: 14 µM
[11]
  GI50: 3.99 µM
  TGI: 29.2 µM
[12]
  GI50: 1.59 µM
  TGI: 3.18 µM
[13]
  GI50: 1.55 µM
  TGI: 3.74 µM
[14]
  GI50: 2.29 µM
  TGI: 9.23 µM
[15]
  GI50: 3.28 µM
  TGI: 12.2 µM
[16]
  GI50: 2.54 µM
  TGI: 6.32 µM
[17]
  GI50: 2.27 µM
  TGI: 6.44 µM
[18]
  GI50: 4.15 µM
  TGI: 20.2 µM
[19]
  GI50: 1.81 µM
  TGI: 7.84 µM
[20]
  GI50: 5.97 µM
  TGI: 40.2 µM
[21]
  GI50: 1.92 µM
  TGI: 3.81 µM
[22]
  GI50: 2.58 µM
  TGI: 9.32 µM
[23]
  GI50: 1.51 µM
  TGI: 3.28 µM
[24]
  GI50: 3.85 µM
  TGI: 23.9 µM
[25]
  GI50: 1.29 µM
  TGI: 2.59 µM
[26]
  GI50: 2.51 µM
  TGI: 6.42 µM
[27]
  GI50: 4.62 µM
  TGI: 22.5 µM
[28]
  GI50: 1.89 µM
  TGI: 4.57 µM
[29]
  GI50: 1.79 µM
  TGI: 3.9 µM
[30]
  GI50: 3.09 µM
  TGI: 48.5 µM
[31]
  GI50: 1.51 µM
  TGI: 3.01 µM
[32]
  GI50: 7.47 µM
  TGI: 21.1 µM
[33]
  GI50: 16 µM
  TGI: 37 µM
[34]
  GI50: 2.41 µM
  TGI: 6.56 µM
[35]
  GI50: 2.09 µM
  TGI: 5.76 µM
[36]
  GI50: 2.79 µM
  TGI: 8.74 µM
[37]
  GI50: 1.64 µM
  TGI: 3.56 µM
[38]
  GI50: 2.75 µM
  TGI: 9.55 µM
[39]
  GI50: 1.69 µM
  TGI: 4.05 µM
[40]
  GI50: 2.01 µM
  TGI: 5.5 µM
[41]
  GI50: 2.14 µM
  TGI: 11.1 µM
[42]
  GI50: 1.93 µM
  TGI: 4.56 µM
[43]
  GI50: 1.58 µM
  TGI: 3.47 µM
[44]
  GI50: 3.52 µM
  TGI: 20.4 µM
[45]
  GI50: 2.41 µM
  TGI: 7.49 µM
[46]
  GI50: 2.86 µM
  TGI: 8.93 µM
[47]
  GI50: 3.1 µM
  TGI: 13.9 µM
[48]
  GI50: 1.94 µM
  TGI: 4.35 µM
[49]
  GI50: 2.17 µM
  TGI: 6.36 µM
[50]
  GI50: 1.75 µM
  TGI: 3.51 µM
[51]
  GI50: 2.34 µM
  TGI: 8.31 µM
[52]
  GI50: 2.04 µM
  TGI: 5 µM
[53]
  GI50: 0.788 µM
  TGI: 2.6 µM
[54]
  GI50: 1.74 µM
  TGI: 4.14 µM
[55]
  GI50: 3.06 µM
  TGI: 12 µM
[56]
  GI50: 1.38 µM
  TGI: 2.77 µM
[57]
  GI50: 3.26 µM
  TGI: 11.9 µM
